Experimental data reported in ChEMBL document CHEMBL1132933, “Protease inhibitors: synthesis and QSAR study of novel classes of nonbasic thrombin inhibitors incorporating sulfonylguanidine and O-methylsulfonylisourea moieties at P1” (J Med Chem, 2000).

Experiments:
[1] = biological target: Prothrombin (Homo sapiens, UniProt P00734); test: Inhibitory activity against human thrombin (using Chromozym TH as the substrate)
[2] = biological target: Trypsin (Homo sapiens, UniProt P07477+P07478+P35030); test: Inhibitory activity against human trypsin (using Chromozym TH as the substrate); assay type: protein assay

Q: For `Cc1ccc(S(=O)(=O)NC(=O)N2CCC[C@H]2C(=O)NCC(=O)Nc2ccc(S(=O)(=O)NN=C(N)N)cc2)cc1`, which Ki [1] is on record?
A: Its Ki is 15 nM.

Q: What about the Ki [2] of the same compound?
A: The Ki was 1560 nM.

Q: What does the source list for `Cc1cc(C)c(S(=O)(=O)N=C(N)N)c(C)c1`?
A: Ki [1]: 255 nM; Ki [2]: 1450 nM

Q: Which Ki [1] does the source give for `Cc1ccc(S(=O)(=O)NC(=O)N2CCCC2C(=O)Nc2ccc(S(=O)(=O)N=C(N)N)cc2)cc1` (centres undefined) here?
A: Its Ki is 48 nM.

Q: And the Ki [2]?
A: The Ki was 1445 nM.

Q: With `COC(=N)NS(=O)(=O)c1ccc(NC(=O)C2CCCN2C(=O)[C@H](Cc2ccccc2)NC(=O)OCc2ccccc2)cc1` (some centres undefined) as the compound, how does the Ki [1] read?
A: The Ki was 16 nM.

Q: What about the Ki [2] of the same compound?
A: Its Ki is 1435 nM.

Q: Which results are given for `COC(=N)NS(=O)(=O)c1ccc(NC(=O)[C@H](Cc2c[nH]cn2)NC(=O)CNC(=O)NS(=O)(=O)c2ccc(C)cc2)cc1`?
A: Ki [1]: 21 nM; Ki [2]: 1550 nM

Q: `COC(=N)NS(=O)(=O)c1ccc(NC(=O)[C@H](Cc2c[nH]cn2)NC(=O)CCNC(=O)NS(=O)(=O)c2ccc(C)cc2)cc1` was tested. Which Ki [1] did it give?
A: The Ki was 19 nM.

Q: And the Ki [2]?
A: Its Ki is 1420 nM.

Q: `COc1ccc(S(=O)(=O)NN=C(N)N)cc1` was tested. Which Ki [1] did it give?
A: The Ki was 227 nM.

Q: What about the Ki [2] of the same compound?
A: Its Ki is 1275 nM.

Q: With `COc1ccc(S(=O)(=O)N=C(N)N)cc1N` as the compound, how does the Ki [1] read?
A: The Ki was 103 nM.

Q: What about the Ki [2] of the same compound?
A: The Ki was 1080 nM.

Q: For `COC(=N)NS(=O)(=O)c1ccc(Cl)cc1`, which Ki [1] is on record?
A: The Ki was 266 nM.

Q: And the Ki [2]?
A: The Ki was 1325 nM.

Q: Which Ki [1] does the source give for `N=C(N)NS(=O)(=O)c1cc(Cl)cc(Cl)c1O` here?
A: The Ki was 152 nM.

Q: What about the Ki [2] of the same compound?
A: The Ki was 1420 nM.

Q: Which Ki [1] does the source give for `COC(=N)NS(=O)(=O)c1cccs1` here?
A: Its Ki is 213 nM.

Q: And the Ki [2]?
A: The Ki was 1350 nM.

Q: Which Ki [1] does the source give for `COC(=N)NS(=O)(=O)c1ccc(NC(=O)[C@@H](Cc2ccccc2)NC(=O)NS(=O)(=O)c2ccc(C)cc2)cc1` here?
A: The Ki was 60 nM.

Q: What about the Ki [2] of the same compound?
A: The Ki was 1320 nM.

Q: For `N=C(N)NS(=O)(=O)c1ccc(NC(=O)C2CCCN2C(=O)[C@H](Cc2ccccc2)NC(=O)OCc2ccccc2)cc1` (some centres undefined), which Ki [1] is on record?
A: The Ki was 13 nM.

Q: What about the Ki [2] of the same compound?
A: The Ki was 1360 nM.

Q: With `N=C(N)NS(=O)(=O)c1ccc(I)cc1` as the compound, how does the Ki [1] read?
A: Its Ki is 210 nM.

Q: What about the Ki [2] of the same compound?
A: The Ki was 1350 nM.

Q: What does the source list for `N=C(N)NNS(=O)(=O)c1c(F)c(F)c(F)c(F)c1F`?
A: Ki [1]: 123 nM; Ki [2]: 1350 nM

Q: Which Ki [1] does the source give for `N=C(N)NNS(=O)(=O)c1ccc(F)cc1` here?
A: Its Ki is 225 nM.

Q: And the Ki [2]?
A: Its Ki is 1025 nM.

Q: What does the source list for `N=C(N)NS(=O)(=O)c1ccc(N)cc1` [SULFAGUANIDINE]?
A: Ki [1]: 95 nM; Ki [2]: 1350 nM
